Several values for one entry are separate records, joined by “and”; a condition that tells them apart may be missing. Identical values can stand only once. Entries after “also recorded” stand apart in the source; their conditions may differ.
How the values were obtained:
[1] = test system: unresectable, locally advanced, or metastatic biliary tract cancer; test: TOPAZ-1 phase 3 study: efficacy of durvalumab or placebo plus gemcitabine and cisplatin (OS, PFS, tumor response per RECIST v1.1); type: in vivo, human; settings: for Difference in overall survival: versus placebo plus gemcitabine and cisplatin; for Objective response rate: investigator assessment, RECIST v1.1, patients with measurable disease at baseline
Experimental: This is a randomized, double-blind, placebo controlled, multi-center, global, Phase III study which determined the efficacy and safety of first-line treatment with durvalumab in combination with gemcitabine/cisplatin versus placebo in combination with gemcitabine/cisplatin in patients with previously untreated, unresectable, locally advanced, or metastatic BTC.
Arm A: Durvalumab plus gemcitabine/cisplatin combination therapy. Durvalumab 1500 mg via intravenous (IV) infusion q3w, starting on Cycle 1 in combination with cisplatin 25 mg/m^2 and gemcitabine 1000 mg/m^2 (each administered on Days 1 and 8 q3w) up to 8 cycles, followed by durvalumab 1500 mg as monotherapy q4w until clinical progression or RECIST 1.1-defined radiological progressive disease (PD), unless there is unacceptable toxicity, withdrawal of consent, or another discontinuation criterion is met.
Arm B: Placebo plus gemcitabine/cisplatin therapy. Placebo via IV infusion q3w, starting on Cycle 1 in combination with cisplatin 25 mg/m^2 and gemcitabine 1000 mg/m^2 (each administered on Days 1 and 8 q3w) up to 8 cycles, followed by placebo monotherapy q4w until clinical progression or RECIST 1.1-defined radiological PD, unless there is unacceptable toxicity, withdrawal of consent, or another discontinuation criterion is met.
Adults aged ≥18 years with histologically confirmed unresectable, locally advanced, or metastatic adenocarcinoma of the biliary tract, including intrahepatic or extrahepatic cholangiocarcinoma and gallbladder carcinoma, were eligible for inclusion. Eligible patients included those with previously untreated disease that was unresectable or metastatic at initial diagnosis and those who developed recurrent disease >6 months after surgery with curative intent and >6 months after the completion of adjuvant therapy. Other inclusion criteria included an Eastern Cooperative Oncology Group (ECOG) performance status of 0 or 1, ≥1 measurable lesion per Response Evaluation Criteria in Solid Tumors (RECIST) v1.1, and no prior exposure to immune-meditated therapy. Patients were excluded if they had ampullary carcinoma, active or prior documented autoimmune or inflammatory disorders, or known allergy or hypersensitivity to any study treatment.
TOPAZ-1 was a phase 3, randomized, double-blind, placebo-controlled, global study. Patients were randomly assigned in a 1:1 ratio to receive durvalumab in combination with gemcitabine and cisplatin or placebo in combination with gemcitabine and cisplatin.
Baseline tumor assessments were performed using images acquired≤28 days before randomization. During the study period, tumor assessments were performed every 6 weeks (±1 week) for the first 24 weeks after randomization, and then every 8 weeks (±1 week) thereafter, until radiological disease progression, followed by ≥1 additional follow-up scan. Survival assessments were performed every 2 months following treatment discontinuation. Patients on treatment or in survival follow-up were contacted following the data cutoff for the interim analysis to provide complete survival data. Newly acquired tumor biopsy samples or archival samples taken≤3 years prior to screening were obtained by an image-guided core needle or by excision from all screened patients. Tissue samples were retrospectively evaluated for programmed cell death ligand 1 (PD-L1) expression by the Ventana PD-L1 (SP263) immunohistochemistry assay in all randomized patients using the tumor area positivity (TAP) score method. “TAP” is the proportion of tumor and/or immune cells with PD-L1 staining at any intensity and can be used interchangeably with “TIP.” A TAP score of ≥1% was defined as PD-L1 staining of any intensity in tumor cell membranes and/or tumor-associated immune cells covering ≥1% of the tumor area. A TAP score of <1% was defined as PD-L1 staining of any intensity in tumor cell membranes and/or tumor-associated immune cells covering <1% of tumor area. […]

[2] = target: PD-L1 (Homo sapiens, UniProt Q9NZQ7); settings: in vitro; cited from earlier work
[3] = test system: xenograft model; settings: via a T-cell dependent mechanism; cited from earlier work
[4] = patients with objective response

PD-L1, sequence (Q9NZQ7 19-290): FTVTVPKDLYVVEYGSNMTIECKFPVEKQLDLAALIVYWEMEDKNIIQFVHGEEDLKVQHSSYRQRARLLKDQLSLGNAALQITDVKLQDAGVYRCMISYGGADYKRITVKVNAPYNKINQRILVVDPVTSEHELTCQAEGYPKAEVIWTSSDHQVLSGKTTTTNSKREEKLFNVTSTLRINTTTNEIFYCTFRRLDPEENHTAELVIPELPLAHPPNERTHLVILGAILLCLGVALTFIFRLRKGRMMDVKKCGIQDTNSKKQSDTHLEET

Durvalumab plus Gemcitabine and Cisplatin: Durvalumab 1500 mg IV q3w with cisplatin 25 mg/m^2 and gemcitabine 1000 mg/m^2 up to 8 cycles, then durvalumab monotherapy q4w
Difference in overall survival ([1]; at 12 months): 6% | Difference in overall survival ([1]; at 18 months): 10% | Difference in overall survival ([1]; at 24 months): 15% | Median overall survival (95% CI) ([1]; full analysis set): 12.8 months | Objective response rate ([1]; listed as durvalumab+GemCis): 26.7% | Median duration of response [1, 4]: 6.4 mo | Median time to response [1, 4]: 1.6 mo | Percentage of patients with continued response ([1]; ≥3 months): 88.9% | Percentage of patients with continued response ([1]; ≥6 months): 59.3% | Percentage of patients with continued response ([1]; ≥9 months): 32.6% | Percentage of patients with continued response ([1]; ≥12 months): 26.1% | Abdominal pain upper, Grade 3/4 (adverse events of any causality): 0 no. | Adrenal insufficiency, Grade 3 or 4 (immune-mediated adverse events): 0 no. | Hyperthyroid events, Grade 3 or 4 (immune-mediated adverse events): 0 no. | Hypophysitis, Grade 3 or 4 (immune-mediated adverse events): 0 no. | Hypothyroid events, Grade 3 or 4 (immune-mediated adverse events): 0 no. | Myositis, Any Grade (immune-mediated adverse events): 0 no. | Myositis, Grade 3 or 4 (immune-mediated adverse events): 0 no. | Pancreatic events, Grade 3 or 4 (immune-mediated adverse events): 0 no. | Renal events, Any Grade (immune-mediated adverse events): 0 no. | Renal events, Grade 3 or 4 (immune-mediated adverse events): 0 no. | Thyroiditis, Grade 3 or 4 (immune-mediated adverse events): 0 no.

durvalumab: antibody that selectively binds PD-L1 and blocks the binding of PD-L1 to PD-1 and CD80 receptors
Benefit of the addition of durvalumab to gemcitabine and cisplatin, subgroup analysis of overall survival ([1]; FIG. 8): observed across all subgroups | Benefit of the addition of durvalumab to gemcitabine and cisplatin, overall survival by PD-L1 expression ([1]; TAP score, Ventana PD-L1 (SP263) assay): observed across PD-L1 expression; also recorded: observed regardless of PD-L1 expression | Overall survival hazard ratio (95% CI) ([1]; after 6 months, durvalumab versus placebo): 0.74 (0.58-0.94) | Estimated overall survival rate (95% CI) ([1]; at 12 months): 54.1% | Estimated overall survival rate (95% CI) ([1]; at 18 months): 35.1% | Estimated overall survival rate (95% CI) ([1]; at 24 months): 24.9% | Overall survival hazard ratio ([1]; durvalumab versus placebo, each plus gemcitabine and cisplatin, 95% CI 0.66-0.97, P=0.021): 0.80 | Hazard ratio for progression-free survival ([1]; durvalumab versus placebo, 95% CI 0.63-0.89, P=0.001): 0.75 | Objective response rate odds ratio ([1]; durvalumab versus placebo, 95% CI 1.11-2.31): 1.60 | Median (95% CI) progression-free survival ([1]; full analysis set): 7.2 months and 7.2 (6.7-7.4) months | Median overall survival (95% CI) ([1]; full analysis set): 12.8 (11.1-14.0) months | Objective response rate [1]: 26.7% | Hazard ratio for overall survival ([1]; patients with PD-L1 TAP score of >1%, durvalumab versus placebo, 95% CI 0.61-1.00): 0.79 | Hazard ratio for overall survival ([1]; patients with TAP score <1%, durvalumab versus placebo, 95% CI 0.60-1.23): 0.86 | Overall survival hazard ratio (95% CI) ([1]; up to 6 months, durvalumab versus placebo): 0.91 (0.66-1.26) | Percentage of patients with continued response ([1]; ≥9 months): 32.6% | Percentage of patients with continued response ([1]; ≥12 months): 26.1% | Additional toxicity to that observed with chemotherapy (in vivo): did not add additional toxicity | Anemia, Any Grade (in vivo): 48.2% | Any immune-mediated adverse event, Any Grade (in vivo): 12.7% | Any immune-mediated adverse event, Grade 3 or 4 (in vivo): 2.4% | Constipation, Any Grade (in vivo): 32.0% | Events in the other rare/miscellaneous category of immune-mediated adverse events (in vivo): immune-mediated arthritis | Nausea, Any Grade (in vivo): 40.2% | Neutropenia, Any Grade (in vivo): 31.7% | Treatment-related adverse event leading to discontinuation of any study treatment (in vivo): 8.9% | PD-L1-mediated suppression of human T-cell activation [2]: can relieve PD-L1-mediated suppression of human T-cell activation | Tumor growth in a xenograft model [3]: inhibits tumor growth
